Experimental data taken from article PMC7647111, “Antileishmanial compounds from Connarus suberosus: Metabolomics, isolation and mechanism of action” (PLoS ONE, 2020).
Values joined by “and” are separate entries in the source; they are usually repeats but may differ in a detail not shown here. Identical values can stand only once.

Assays:
[1] = tested on: L. amazonensis amastigotes; assay: L. amazonensis amastigotes assay (RFP parasites in peritoneal macrophages); type: cell-based, Leishmania amazonensis (IFLA/BR/1967/PH8)
Protocol: Peritoneal macrophages obtained from BALB/c mice were transferred to a 24-well plate (6x10^5 cells/well) in RPMI 1640 medium supplemented with 10% inactivated FBS and 20 mM L-glutamine, pH 7.2. The plate was incubated at 37°C in 5% CO2 for 24 h. After this period, macrophages were infected with L. amazonensis (IFLA/BR/1967/PH8) transfected with RFP in the stationary growth phase using a ratio 1:10 (macrophages/parasites) at 33°C for 4 h. The non-phagocytosed parasites were subsequently removed by extensive PBS wash, and samples added at non-toxic concentrations, in accordance with the cytotoxicity tests (100 μg/mL to 1.56 μg/mL) to determine the IC50 for the intracellular parasite. After 72 h, the supernatant was removed from the wells and 200 μL of deionized water added to each well to lyse the cell membrane. After lysis, the resulting supernatants were transferred to a black 96-well plate. The plate was read in a fluorescence spectrophotometer (FLx800, BioTek Instruments, Inc., Winooski, VT, USA) with 540/600 nm of excitation/emission. Wells containing macrophages infected with L. amazonensis (RFP) […] only were used as negative controls.

[2] = tested on: L. amazonensis promastigotes; assay: Antiproliferation assay: L. amazonensis promastigotes (72 h), MTT; type: cell-based, Leishmania amazonensis (IFLA/BR/1967/PH8); settings: Leishmania amazonensis; 72 h exposure
Protocol: Leishmania amazonensis promastigotes (IFLA/BR/1967/PH8) for the 24 h exposure test were cultivated in RPMI 1640, supplemented with 20% v/v heat inactivated fetal bovine serum (FBS) and incubated at 26°C until near the end of the log growth phase. Leishmania amazonensis (IFLA/BR/1967/PH8) and L. infantum (MCAN/BR/2008/1112) promastigotes used in the 72 h exposure test were cultivated in Warren’s medium (containing brain heart infusion- BHI plus hemin and folic acid), supplemented with 10% FBS, 0.1% of the antibiotics: 100 UI/mL penicillin G and 0.1 mg/mL streptomycin. Leishmania amazonensis (IFLA/BR/1967/PH8) transfected with the red fluorescent protein (RFP) gene was cultured in M199 medium (containing 0.1 mmol/L adenine, 40 mmol/L hepes, 0.0005% hemin and 0.0002% biotin), supplemented with 10% FBS, and 0.1% of the antibiotic. Parasites were maintained at 25°C in a BOD incubator.
Extracts and isolated compounds were tested against L. amazonensis promastigotes (IFLA/BR/1967/PH8 strain - 2x10^5 cells/well) and L. infantum promastigotes (MCAN/BR/2008/1112 strain - 3x10^5 cells/well). The samples were solubilized in DMSO (<1%), serially diluted (100 μg/mL to 1.56 μg/mL) and tested in a 96-well plate to obtain a dose-response curve. Miltefosine and DMSO were used as positive and negative controls, respectively. After 72 h, 10 μL of 3-(4,5-dimethylthiazol-2-yl)-2,5-diphenyl tetrazolium bromide (5 mg/mL—MTT, Sigma-Aldrich) solution was added to each well and the plate returned to the incubator for an additional 4 h. To halt the reaction, 100 μL acidified isopropanol was added to each well. Plates were read at 570 nm in a microplate reader (Multiskan MS, LabSystems Oy, Helsinki, Finland).

[3] = tested on: L. amazonensis promastigotes; assay: Mitochondrial membrane potential (MitoTracker); type: cell-based, Leishmania amazonensis; settings: 24 h; 2 at 33.8 μM, 3 at 11.4 μM; FCCP 5.0 μM for 10 min
Protocol: After 24 h of incubation at 25°C, the parasite concentration was adjusted to 5x10^6 cells/mL and stained with 500 nM MitoTracker (Invitrogen, Eugene, OR, USA) in the dark for 40 min at 37°C. After washing twice with PBS, samples were transferred in triplicate to a black 96-well plate, and fluorescence measured in a spectrofluorometer (FLx800, BioTek Instruments, Inc., Winooski, VT, USA) at 540/600 nm excitation/emission. […] Louis, MO, USA) for 10 min were used to obtain maximal mitochondrial depolarization (positive control).

[4] = tested on: L. amazonensis promastigotes; assay: Neutral lipid quantification (Nile Red); type: cell-based, Leishmania amazonensis; settings: 24 h; 2 at 33.8 μM, 3 at 11.4 μM
Protocol: After 24 h of exposure, the parasites (1x10^7 cells/well) were stained with 10 μg/mL Nile Red (Sigma-Aldrich, St. Louis, MO, USA) in the dark for 20 min at 25°C. Fluorescence intensity was analysed in a spectrofluorometer (BioTek Instruments, Inc., Winooski, VT, USA) using 485/528 nm excitation/emission.

`C=C[C@@H](c1cc(CC=C(C)C)ccc1O)c1cc(CC=C(C)C)c(OC)cc1O` [Compound 3, connarin] was tested, and the “SI (Selectivity Index)” value ([1]; CC50 macrophages / IC50 L. amazonensis amastigotes) was 6.3, the IC50 ([1]; Leishmania amazonensis, Peritoneal macrophage, intracellular, 72 h) was 1.13 µg/mL and 2.9 µM and the IC50 [2] was 4.5 µg/mL and 11.4 µM. The “reduction in mitochondrial membrane potential (ΔΨm)” value [3] was 26.5% and the “increase in neutral lipid levels in relation to the untreated control” value [4] was 82.0%.
